For this experiment, the target named is T1, PIKfyve (Homo sapiens, UniProt Q9Y2I7).
T1 construct: Recombinant GST-PIKfyve (full-length, #11-118)
Put plainly: in vitro lipid kinase assay, ADP-Glo luminescence, PI([…])P substrate. The experiment is classed as biochemical.

In PMC10803372 (Cell Death & Disease, 2024) one finds IC50 data, which are given here for 1 compound.

Broadly, the IC50 is the concentration that gives 50% inhibition.

T1 sequence (Q9Y2I7 2-2098): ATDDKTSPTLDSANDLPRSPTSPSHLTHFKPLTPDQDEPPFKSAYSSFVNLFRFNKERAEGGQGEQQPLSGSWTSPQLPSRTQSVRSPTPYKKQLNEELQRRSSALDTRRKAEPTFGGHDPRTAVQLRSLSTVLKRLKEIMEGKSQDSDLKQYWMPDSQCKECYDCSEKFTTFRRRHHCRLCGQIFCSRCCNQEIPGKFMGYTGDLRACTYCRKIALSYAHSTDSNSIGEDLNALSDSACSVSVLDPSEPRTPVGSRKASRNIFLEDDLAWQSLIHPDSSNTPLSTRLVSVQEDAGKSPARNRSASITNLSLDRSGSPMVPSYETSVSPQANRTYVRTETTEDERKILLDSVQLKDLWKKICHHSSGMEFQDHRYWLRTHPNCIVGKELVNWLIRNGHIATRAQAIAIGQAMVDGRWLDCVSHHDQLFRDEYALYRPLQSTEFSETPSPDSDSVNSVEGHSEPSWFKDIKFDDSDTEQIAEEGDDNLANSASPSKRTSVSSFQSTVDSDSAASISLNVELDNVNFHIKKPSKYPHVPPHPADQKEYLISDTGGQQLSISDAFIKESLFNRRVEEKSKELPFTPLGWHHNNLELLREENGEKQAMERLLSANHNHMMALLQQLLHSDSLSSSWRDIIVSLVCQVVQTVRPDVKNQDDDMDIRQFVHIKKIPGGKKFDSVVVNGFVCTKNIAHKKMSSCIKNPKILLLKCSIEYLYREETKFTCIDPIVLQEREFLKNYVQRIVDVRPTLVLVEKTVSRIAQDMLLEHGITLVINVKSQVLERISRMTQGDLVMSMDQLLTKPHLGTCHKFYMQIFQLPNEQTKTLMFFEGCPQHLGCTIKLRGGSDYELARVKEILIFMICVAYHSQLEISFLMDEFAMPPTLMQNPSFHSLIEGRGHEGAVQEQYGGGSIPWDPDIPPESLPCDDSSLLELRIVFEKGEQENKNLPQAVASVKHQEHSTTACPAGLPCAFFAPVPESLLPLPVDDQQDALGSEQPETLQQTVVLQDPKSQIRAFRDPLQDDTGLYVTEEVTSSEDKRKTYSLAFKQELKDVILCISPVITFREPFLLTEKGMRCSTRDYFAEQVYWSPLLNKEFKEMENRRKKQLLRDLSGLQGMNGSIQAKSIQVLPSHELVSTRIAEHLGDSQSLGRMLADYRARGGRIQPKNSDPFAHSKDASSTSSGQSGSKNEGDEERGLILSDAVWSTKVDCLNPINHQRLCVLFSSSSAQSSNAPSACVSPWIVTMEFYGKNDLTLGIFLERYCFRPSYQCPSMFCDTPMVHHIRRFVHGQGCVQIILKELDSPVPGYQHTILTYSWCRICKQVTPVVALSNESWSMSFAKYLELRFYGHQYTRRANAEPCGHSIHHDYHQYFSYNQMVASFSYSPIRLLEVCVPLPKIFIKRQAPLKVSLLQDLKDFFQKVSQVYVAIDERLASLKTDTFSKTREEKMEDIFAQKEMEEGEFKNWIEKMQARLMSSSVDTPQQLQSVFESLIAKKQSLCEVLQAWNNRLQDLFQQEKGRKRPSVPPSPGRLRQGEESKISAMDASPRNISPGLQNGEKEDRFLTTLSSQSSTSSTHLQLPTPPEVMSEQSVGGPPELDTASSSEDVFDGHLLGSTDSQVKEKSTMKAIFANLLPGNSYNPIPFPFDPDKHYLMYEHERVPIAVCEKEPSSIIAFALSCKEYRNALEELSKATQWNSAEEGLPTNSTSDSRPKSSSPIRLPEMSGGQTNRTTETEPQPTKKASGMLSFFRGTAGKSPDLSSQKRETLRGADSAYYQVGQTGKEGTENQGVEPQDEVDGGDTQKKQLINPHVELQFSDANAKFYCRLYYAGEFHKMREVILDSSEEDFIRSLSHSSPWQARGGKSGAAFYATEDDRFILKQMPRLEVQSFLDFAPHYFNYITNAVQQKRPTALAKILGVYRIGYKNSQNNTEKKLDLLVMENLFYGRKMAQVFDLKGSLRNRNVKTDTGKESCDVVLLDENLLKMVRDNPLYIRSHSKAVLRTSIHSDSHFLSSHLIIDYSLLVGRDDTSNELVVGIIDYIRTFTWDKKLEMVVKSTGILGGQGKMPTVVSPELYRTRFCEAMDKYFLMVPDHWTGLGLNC

As for `Oc1ccc(-c2nc(-c3ccncc3)c(-c3ccc(F)cc3)[nH]2)cc1` [SB202190], inhibition was half-maximal at 355 ± 36.2 nM (IC50).
